Test results reported in patent US20240009151A1, “FORMULATIONS OF AZOBENZENE PHOTOREACTIVE COMPOUNDS” (BAYON THERAPEUTICS, INC., priority 2020, published 2024).

Key:
[1] = test system: retinal ganglion cells (RGCs) from rd1 retina; test: multielectrode array (MEA) electrophysiology of isolated rd1 retinas, light response index (LRI); format: cell-based, mouse
Experimental: Isolated rd1 retinas were treated with formulations of 100 μM Compound 1 and increasing concentrations of SBE-CD, from 300 μM to 34000 μM. Light responsivity was measured using multielectrode array (MEA) electrophysiology. […] To quantify the degree of light-responsivity for each recorded cell, the normalized relative difference in observed spike frequencies with and without light stimulus was defined as the light response index (LRI): […]

RGCs of rd1 retina = test: single in vivo injection, time course of photosensitization of RGCs (spike rasters, LRI); parameters: species or system mouse; settings: 100 μM Compound 1 and 1200 μM SBE-CD, observed up to 28 days post-injection
Text: FIG. 3e is a scatter plot correlating the strength of light responses in RGCs and the abundance of Compound 1 in retinal tissue.

[2] = test system: RGCs of rd1-GCaMP6f retina; test: 2-photon live calcium imaging of isolated rd1-GCaMP6f retina, fraction of light-responsive cells; format: cell-based, mouse; settings: 100 μM Compound 1; lower stoichiometry of SBE-CD (300 μM vs 1200 μM), synaptic blockers
Experimental: To better understand how Compound 1 was photosensitizing RGCs, an rd1 mouse line was generated expressing the genetically encoded calcium indicator GCalVIP6f under control of Synapsin-1 to label all neurons for 2-photon live imaging. Isolated retina from these mice were then treated with 100 uM Compound 1 and either 300 uM or 1200 uM SBE-CD and imaged in the presence of synaptic blockers. The latter concentration was chosen to increase the amount of available cyclodextrin around to potentiate the photosensitization while not completely quenching it. Due to the spectral overlap of Compound 1 absorbance with GCaMP6fref, an interline stimulus module was developed for the 2-photon microscope. […]
To determine which neurons were responding to light, collected movies were cross correlated to the stimulus periods using an autocorrelation estimation. […] These resulting correlated micrographs were then used to quantify the number of light-responsive cells. […]
The total number of cells were counted from a max Z-projection the same movies and used to determine the relative fraction of light-responsive cells per Compound 1 formulation. […] The activity was also rastered using the recorded ΔF/F of all neurons (FIG. 2e).

For `CCN(Cc1ccccc1)c1ccc(/N=N/c2ccc(NC(=O)C[N+](CC)(CC)CC)cc2)cc1` [Compound 1], the “dependence of LRI on the amount of SBE-CD used” value ([1]; 100 μM Compound 1, SBE-CD from 300 μM to 34000 μM) was “dose-response”, the “light response of RGCs (MEA)” value ([1]; 100 μM Compound 1 with 300 μM SBE-CD (minimal amount)) was “strongest light-responses” and the “light response of RGCs (MEA)” value ([1]; 100 μM Compound 1 with 34000 μM SBE-CD (excess)) was “nearly eliminated any light response”. The “photosensitization of the cells (LRI histograms)” value ([1]; excess of SBE-CD, compared to untreated rd1 tissue) was “very weakly”, the “number of light-responding RGCs (LRI histograms)” value ([1]; minimal amount of SBE-CD) was “greatly increased” and the “duration of photosensitization of RGCs” value (RGCs of rd1 retina) was “prolongs photosensitization”. For the same compound, the “number of RGCs that were light responsive (fraction of light-responding cells)” value [2] was “greater number of RGCs that were light responsive”.
